Data set [1] in a line: Competition with DMSO for hydroxyl radicals. Type of data set: biochemical. As to conditions: compound 0.1 mM; 30 min, 37 °C, pH 7.4. As for the experimental part: (§1) The antioxidant activity of complexes 1–3 was evaluated via their ability to scavenge the free radicals DPPH, hydroxyl, and ABTS. Each experiment was performed in triplicate and the standard deviation of absorbance was less than 10% of the mean.
Competition of the tested compounds with DMSO for hydroxyl radicals: The hydroxyl radicals generated by the Fe^3+/ascorbic acid system were detected according to Nash by the determination of formaldehyde produced from the oxidation of DMSO [155]. The reaction mixture contained EDTA (0.1 mM), Fe^3+ (167 μM), DMSO (33 mM) in phosphate buffer (50 mM, pH 7.4), complexes 1–3 (concentration 0.1 mM), and ascorbic acid (10 mM). After a 30-min incubation at 37 °C, the reaction was stopped with CCl3COOH (17% w/v) and the absorbance at λ = 412 nm was measured. Trolox was used as a reference compound. The competition of the compounds with DMSO for •OH, generated by the Fe^3+/ascorbic acid system, expressed as the percentage of inhibition of formaldehyde production, was used for the evaluation of their hydroxyl radical-scavenging activity (OH%).

The nature of data set [2]: Solubility of the complexes. In kind it is physicochemical.
The next data set in a line: DPPH radical scavenging. Type of data set: biochemical. Particulars: compound 0.1 mM; for DPPH% (DPPH scavenging ability), 20 min / DPPH% (DPPH scavenging ability), 60 min: ethanol. As for the experimental part: as §1
Ethanol was also used as a control solution. The absorbance at 517 nm was recorded at room temperature, two times, after 20 and 60 min, in order to examine the time-dependence of the DPPH-scavenging activity. The DPPH-scavenging activity of the compounds was expressed as the percentage reduction of the absorbance values of the initial DPPH solution (RA%). The compounds NDGA and BHT were used as reference compounds.
A general note: DPPH is a stable violet radical that fades when it is reduced.

The target in data set [3] is T1, bovine serum albumin (BSA) (Bos taurus, UniProt P02769).
T1 construct: purchased Sigma-Aldrich Co. (St. Louis, MO, USA)
T1 sequence (P02769 25-607): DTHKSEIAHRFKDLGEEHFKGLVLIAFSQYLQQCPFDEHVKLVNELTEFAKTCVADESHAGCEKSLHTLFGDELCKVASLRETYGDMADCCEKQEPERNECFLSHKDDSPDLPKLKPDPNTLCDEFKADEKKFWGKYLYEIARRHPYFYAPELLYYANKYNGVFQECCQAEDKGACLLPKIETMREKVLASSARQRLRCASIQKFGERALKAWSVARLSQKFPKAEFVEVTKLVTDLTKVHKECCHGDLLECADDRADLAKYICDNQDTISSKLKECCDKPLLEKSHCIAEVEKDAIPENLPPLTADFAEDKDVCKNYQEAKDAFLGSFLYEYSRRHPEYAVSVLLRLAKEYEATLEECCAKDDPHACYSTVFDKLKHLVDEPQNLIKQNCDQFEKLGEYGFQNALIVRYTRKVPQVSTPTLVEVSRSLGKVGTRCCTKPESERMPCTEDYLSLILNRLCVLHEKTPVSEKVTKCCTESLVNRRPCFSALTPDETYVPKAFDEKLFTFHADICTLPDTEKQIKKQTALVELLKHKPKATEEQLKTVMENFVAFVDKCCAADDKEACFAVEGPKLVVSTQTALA
Kind of data set: BSA fluorescence emission quenching (albumin binding). As to conditions: for ΔI/Io (%) quenching of BSA fluorescence: BSA 3 μM, λex 295 nm, λem 343 nm; for K albumin-binding constant (BSA): Scatchard equation; for Kq albumin-quenching constant (BSA): Stern–Volmer, τo = 10^−8 s; for relative BSA fluorescence emission intensity (I/Io, %) remaining: λem,max = 343 nm, up to, % of the initial BSA fluorescence. Here is the method:
The albumin-binding study for complexes 1–3 was performed via fluorescence emission quenching experiments using BSA (3 μM) or HSA (3 μM), respectively, in a buffer solution (containing 15-mM trisodium citrate and […] at pH 7.0). The quenching of the emission intensity of tryptophan residues of BSA at 343 nm or HSA at 351 nm was monitored using complexes 1–3 as quenchers with increasing concentrations. The fluorescence emission spectra were recorded in the range of 300–500 nm, with an excitation wavelength of 295 nm. The quantitative studies of the serum albumin fluorescence spectra were performed after correction by subtracting the spectra of the compounds.
The extent of the inner-filter effect can be roughly estimated with the following formula:(2) Icorr=Imeas×10^ε(λexc)cd/2×10^ε(λem)cd/2 where Icorr = corrected intensity, Imeas = the measured intensity, c = the concentration of the quencher, d = the cuvette (1 cm), ε(λexc), and ε(λem) = the ε of the quencher at the excitation and the emission wavelength, respectively, as calculated from the UV-vis spectra of the complexes.
The Stern–Volmer and Scatchard graphs are used in order to study the interaction of a quencher with serum albumins. The Stern–Volmer quenching equation is used:(3) Io/I=1+Kq×τ0×[Q]=1+KSV×[Q] where Io = the initial tryptophan fluorescence intensity of SA, I = the tryptophan fluorescence intensity of SA after the addition of the quencher, Kq = the quenching constants of SA, KSV = the Stern–Volmer constant, τo = the average lifetime of SA without the quencher, and [Q] = the concentration of the quencher. The value of KSV (M^−1) can be obtained by the slope of the diagram Io/I versus [Q]. Taking τo = 10^−8 s as the fluorescence lifetime of tryptophan in SA, the value of Kq (M^−1s^−1) is calculated from the equation:(4) KSV=Kq×τo and from the Scatchard equation [130]:(5) ΔI/Io/[Q]=n×K−K×ΔI/Io where n is the number of binding sites per albumin and K is the SA-binding constant, K (in M^−1) is calculated from the slope in plots (ΔI/Io)/[Q] versus (ΔI/Io), and n is given by the ratio of y-intercept to the slope.

Data set [4] is described as follows: ABTS radical cation scavenging. In kind it is biochemical. As to conditions: compound 0.1 mM; 1 min after mixing. Here is the method:
as §1
Assay of radical cation scavenging activity (ABTS^+•): An ABTS cationic radical (ABTS^+•) was produced by reacting an aqueous stock solution (2 mM) of ABTS with 0.17-mM potassium persulfate and allowing the mixture to stand in the dark at room temperature for 12–16 h before use. […] Although the oxidation of ABTS commenced immediately, the absorbance became maximal and stable after 6 h. The radical was stable in this form for more than two days when stored in the dark at room temperature. The ABTS radical solution was diluted with ethanol to an absorbance of 0.70 at 734 nm. After the addition of 10 μL of complexes 1–3 or the standards (0.1 mM) in DMSO, the absorbance was recorded exactly 1 min after initial mixing. The radical scavenging activity of the complexes was expressed as the percentage inhibition of the absorbance of the initial ABTS solution (ABTS%). Trolox was used as a reference compound.

Consider 2 substances from article PMC10094617, “Iron(III) Complexes with Non-Steroidal Anti-Inflammatory Drugs: Structure, Antioxidant and Anticholinergic Activity, and Interaction with Biomolecules” (International Journal of Molecular Sciences, 2023).

With “[Fe3O(dicl)6(MeOH)3][FeCl4]·Hdicl·1.5MeOH∙H2O [Complex 3]”, the “OH% (competition % with DMSO for hydroxyl radical)” value in data set [1] was 94.31 ± 0.78%. In data set [2], the solubility result is on record as “Soluble in DMSO”. In addition, in the data set “DPPH radical scavenging”, the “DPPH% (DPPH scavenging ability), 20 min” value is recorded as 18.94 ± 0.73% and the “DPPH% (DPPH scavenging ability), 60 min” value turned out to be 18.98 ± 0.74%. In data set [3], the “ΔI/Io (%) quenching of BSA fluorescence” value worked out at 97.6%; the “K albumin-binding constant (BSA)” value was 5.44 (±0.05) × 10^5 M^−1; the “Kq albumin-quenching constant (BSA)” value is 8.45 (±0.31) × 10^13 M^−1s^−1; the “relative BSA fluorescence emission intensity (I/Io, %) remaining” value was 2.4%. For the same substance, in data set [4], the “ABTS% (ABTS radical scavenging activity)” value was found to be 87.72 ± 0.36%.
[Fe3O(dicl)6(py)3]Cl∙py [Complex 2]: the “OH% (competition % with DMSO for hydroxyl radical)” value in data set [1] is 87.89 ± 0.84%. In data set [2], the solubility result is on record as “Soluble in DMSO”. In the data set “DPPH radical scavenging”, the “DPPH% (DPPH scavenging ability), 20 min” value is recorded as 23.12 ± 0.37% and the “DPPH% (DPPH scavenging ability), 60 min” value is given as 22.97 ± 0.17%. Besides, the “DPPH% (span over 20-min and 60-min treatments)” value in the data set “DPPH radical scavenging” (20 min and 60 min) is 22.97–23.12%. In data set [3], the “ΔI/Io (%) quenching of BSA fluorescence” value is 92.5%; the “K albumin-binding constant (BSA)” value is given as 6.09 (±0.31) × 10^5 M^−1; the “Kq albumin-quenching constant (BSA)” value is 8.70 (±0.43) × 10^13 M^−1s^−1; the “relative BSA fluorescence emission intensity (I/Io, %) remaining” value was 7.5%. In addition, the “ABTS% (ABTS radical scavenging activity)” value in data set [4] worked out at 85.39 ± 0.52%.
